Measured values as given in paper PMC2866477, “Anticancer Effect and Structure-Activity Analysis of Marine Products Isolated from Metabolites of Mangrove Fungi in the South China Sea” (Marine Drugs, 2010).
Like-named read-outs stand apart in the source and are kept apart here.

What was measured:
[1] = test system: KB cells; experiment: MTT cytotoxicity assay, KB cells; assay type: cell-based; conditions: Homo sapiens, 72 h treatment, KB oral epidermoid carcinoma cells
Description: (§1) The cell lines were cultured in DMEM or RPMI 1640 containing 10% fetal bovine serum at 37 °C in the presence of 5% CO2. The cell lines were the oral epidermoid carcinoma cell lines KB and its vincristine-selected ABCB1-overexpressing KBv200 [10]; the breast carcinoma cell lines MCF-7 and its doxorubicin-selected ABCB1-overexpressing MCF-7/adr; the lung carcinoma cell line A549 and normal liver cell line LO2.
(§2) The MTT assay was used to evaluate the cytotoxicity of a number of compounds previously isolated from mangrove-derived fungi as described. Briefly, 3–4 × 10^3 cells were incubated in 96-well plates and allowed to attach overnight before compounds at full range concentrations were added. The concentrations were chosen so that the highest concentration killed most of the cells and the lowest killed none of the cells. After 72 h treatment, 0.5 mg/ml MTT was added to each well for an additional 4 h. Subsequently, the supernatant was removed, and the purple MTT-formazan crystals were dissolved by DMSO. Finally, absorbance was recorded at 540 nm with 655 nm as a reference filter using a Model 550 Microplate Reader (Bio-Rad, USA). Experiments were performed at least three times. The standard chemotherapeutic agent doxorubicin was used as a positive control in MTT assay and normal liver cell line LO2 was used to show whether cytotoxic activity was tumor-specific. The concentrations required to inhibit growth by 50% (IC50) were calculated from survival curves using the Bliss method.

[2] = test system: KBv200 cells; experiment: MTT cytotoxicity assay, KBv200 cells; assay type: cell-based; conditions: Homo sapiens, 72 h treatment, vincristine-selected ABCB1-overexpressing KBv200 cells
Description: as §1, §2

[3] = test system: MCF-7 cells; experiment: MTT cytotoxicity assay, MCF-7 cells; assay type: cell-based; conditions: Homo sapiens, MCF7, 72 h treatment, MCF-7 breast carcinoma cells
Description: as §1, §2

[4] = test system: MCF-7/adr cells; experiment: MTT cytotoxicity assay, MCF-7/adr cells; assay type: cell-based; conditions: Homo sapiens, NCI/ADR-RES, 72 h treatment, doxorubicin-selected ABCB1-overexpressing MCF-7/adr cells
Description: as §1, §2

[5] = test system: A549 cells; experiment: MTT cytotoxicity assay, A549 cells; assay type: cell-based; conditions: Homo sapiens, 72 h treatment, A549 lung carcinoma cells
Description: as §1, §2

[6] = test system: normal liver LO2 cells; experiment: MTT cytotoxicity assay, normal liver LO2 cells; assay type: cell-based; conditions: for IC50: Homo sapiens, L02, 72 h treatment; for IC50 / growth inhibitory activity in LO2 cells (in words): normal liver LO2 cells; for sensitivity of cancer cells compared with normal liver LO2 cells: cancer cells versus LO2 cells
Description: as §1, §2

[7] = test system: pcDNA3.1(+) DNA; experiment: DNA binding assay (agarose gel electrophoresis); conditions: 10, 100 or 200 μmol/L with 1 μg pcDNA3.1(+), 37 °C, 3 h; 1% agarose gel
Description: 10, 100 or 200 μmol/L compounds were incubated with 1 μg pcDNA3.1(+) at 37 °C for 3 h. The mixtures were then subjected to electrophoresis on a 1% agarose gel, pre-stained with 0.5 μg/ml ethidium bromide, at 60 V for 40 min. Doxorubicin (DOX) was used as a positive control.

[8] = test system: KB, KBv200, MCF-7, MCF-7/adr, and A549 cells; experiment: MTT anticancer screen, cancer cell panel; assay type: cell-based, human; conditions: for IC50: Homo sapiens, MTT; for IC50 values in MDR cells compared with parental sensitive cells: KBv200, MCF-7/adr versus KB, MCF-7
Description: as §1, §2

[9] = KB, KBv200, MCF-7, MCF-7/adr, and A549 cells, read-out: IC50 values (potent cytotoxic activity)
[10] = cancer cells, cell lines not given, read-out: IC50 (cytotoxic activity)

SMILES | IC50 [1] [µM] | IC50 [2] [µM] | IC50 [3] [µM] | IC50 [4] [µM] | IC50 [5] [µM] | IC50 [6] [µM] | growth inhibitory activity in LO2 cells (in words) [6] | DNA intercalation / binding to DNA [7] | IC50 [8, 9] [µM] | IC50 values in MDR cells compared with parental sensitive cells [8] | sensitivity of cancer cells compared with normal liver LO2 cells [6] | cytotoxic / anticancer activity (in words) ([8]; MTT assay in vitro) | IC50 [8, 10] [µM]
C=C/C=C/COc1c(-c2ccc3c(c2OC/C=C/C=C)C(=O)C2=C(O)CC(C)C(O)C2(C(=O)OC)O3)ccc2c1C(=O)C1=C(O)CC(C)C(O)C1(C(=O)OC)O2 (centres unmarked) [Compound 10] | > 50 | > 50 | > 50 | > 50 | > 50 | > 50 | – | – | – | – | – | – | –
Cc1c(O)cc(O)c(C(=O)O)c1C [Compound 4] | 1.15 ± 0.06 | 6.74 ± 0.38 | 11.7 ± 0.86 | 35.7 ± 2.08 | 17.1 ± 1.03 | 16.5 ± 1.22 | exhibited growth inhibitory activity in LO2 cells | none of the compounds investigated here showed binding to DNA | < 50 | – | – | – | –
Cc1ccc([N+](=O)[O-])cc1CO [Compound 2] | > 50 | > 50 | > 50 | > 50 | > 50 | > 50 | – | – | – | – | – | – | –
C=C/C=C/COc1cccc2c1C(=O)c1c(O)cccc1C2=O [Compound 13] | 21 ± 1.35 | > 50 | 16.3 ± 0.71 | > 50 | 31.2 ± 2.02 | > 50 | – | none of the compounds investigated here showed binding to DNA | < 50 | much higher IC50 values | – | – | –
O=C1c2ccc(O)cc2OCC1c1ccc(O)cc1 (centres unmarked) [Compound 78] | 8.63 ± 0.57 | 9.37 ± 0.61 | 19.8 ± 0.89 | 24.9 ± 1.15 | 14.9 ± 0.64 | 33.6 ± 2.06 | – | none of the compounds investigated here showed binding to DNA | < 50 | – | more sensitive | exhibited a cytotoxicity targeted to cancer cells | –
COc1cc(O)c2c(c1O)C(O)C1CC(C)(O)C(O)C(O)C1C2=O (centres unmarked) [Compound 20] | > 50 | > 50 | > 50 | > 50 | > 50 | > 50 | – | – | – | – | – | – | –
COc1cc(O)c2c(c1O)C(=O)C1CC(C)(O)C(O)C(O)C1C2O (centres unmarked) [Compound 24] | > 50 | > 50 | > 50 | > 50 | > 50 | > 50 | – | – | – | – | – | – | –
C/C=C/C(=O)c1cc(O)c(O)cc1O [Compound 6] | > 50 | > 50 | > 50 | > 50 | > 50 | > 50 | – | – | – | – | – | – | –
Cc1cccc(O)c1C(=O)O [Compound 5] | > 50 | > 50 | > 50 | > 50 | > 50 | > 50 | – | – | – | – | – | – | –
CCOC(=O)COc1cc(C)cc2c1C(=O)c1c(O)cccc1C2=O [Compound 11] | 5.89 ± 0.37 | 18.9 ± 1.2 | 13.2 ± 0.84 | 35.3 ± 2.77 | 21.3 ± 1.6 | 28.9 ± 1.46 | exhibited growth inhibitory activity in LO2 cells | none of the compounds investigated here showed binding to DNA | < 50 | – | – | – | –
CCOC(=O)COc1cccc2c1C(=O)c1c(OCC(=O)OCC)cc(C)cc1C2=O [Compound 12] | > 50 | > 50 | > 50 | > 50 | > 50 | > 50 | – | – | – | – | – | – | –
O=c1c2c(O)ccc(O)c2oc2c3c(cc(O)c12)OC1OCCC31 (centres unmarked) [Compound 7] | 0.03 ± 0.001 | 9.08 ± 0.65 | 0.17 ± 0.01 | 31.6 ± 1.83 | 16.5 ± 0.88 | 47.4 ± 2.04 | – | – | < 50 | much higher IC50 values | – | – | –
COc1c2c(cc3oc4cccc(O)c4c(=O)c13)C1C=COC1O2 (centres unmarked) [Compound 9] | 0.94 ± 0.01 | 48 ± 3.41 | 1.43 ± 0.09 | 31.6 ± 1.36 | > 50 | > 50 | – | – | < 50 | much higher IC50 values | – | – | –
O=C1c2cc(O)cc(O)c2C(=O)c2c1cc1c(c2O)C2CCCC(O1)O2 (centres unmarked) [Compound 18] | 28.2 ± 1.66 | 44.6 ± 2.57 | 17.2 ± 0.95 | 25 ± 1.06 | 33.9 ± 2.31 | > 50 | – | none of the compounds investigated here showed binding to DNA | < 50 | – | more sensitive | – | –
COC(=O)/C=C/C=C/C=C/C=C(C)/C=C/C=C(\C)C(=O)O [Compound 85] | > 50 | > 50 | > 50 | > 50 | > 50 | > 50 | – | – | – | – | – | – | –
Cc1c(CCl)cc([N+](=O)[O-])cc1CCl [Compound 3] | > 50 | > 50 | > 50 | > 50 | > 50 | > 50 | – | – | – | – | – | – | –
CCCCC/C=C\CC(O)/C=C/C=C\C/C=C\CCCC(=O)OC (centres unmarked) [Compound 82] | > 50 | > 50 | > 50 | > 50 | > 50 | > 50 | – | – | – | – | – | – | –
Cc1ccc2c(c1)C(=O)c1ccc(-c3ccc4c(c3)C(=O)c3cc(C)cc(O)c3C4=O)c(O)c1C2=O [Compound 19] | > 50 | > 50 | > 50 | > 50 | > 50 | > 50 | – | – | – | – | – | – | –
COc1cc(O)c2c(c1O)C(=O)C1CC(C)(O)C(O)CC1C2O (centres unmarked) [Compound 23] | > 50 | > 50 | > 50 | > 50 | > 50 | > 50 | – | – | – | – | – | – | –
COc1cc(O)c2c(c1O)C(=O)C1CC3(C)OC3CC1C2O (centres unmarked) [Compound 25] | > 50 | > 50 | > 50 | > 50 | > 50 | > 50 | – | – | – | – | – | – | –
CC1OC(O[C@H]2C(=O)c3c(O)cccc3OC2c2ccc(O)cc2)C(O)C(O)C1O (some centres unmarked) [Compound 80] | > 50 | > 50 | > 50 | > 50 | > 50 | > 50 | – | – | – | – | – | – | > 50
COc1cc(O)c2c(c1O)C(O)C1CC(C)(O)C(O)CC1C2=O (centres unmarked) [Compound 21] | > 50 | > 50 | > 50 | > 50 | > 50 | > 50 | – | – | – | – | – | – | –
CC(=O)/C=C/C=C/C=C/C(=O)CC(=O)O [Compound 84] | > 50 | > 50 | > 50 | > 50 | > 50 | > 50 | – | – | – | – | – | – | –
COc1cc(O)c2c(c1O)C(O)C1CC3(C)OC3CC1C2=O (centres unmarked) [Compound 22] | > 50 | > 50 | > 50 | > 50 | > 50 | > 50 | – | – | – | – | – | – | –
O=c1c2ccccc2oc2c3c(cc(O)c12)OC1OCCC31 (centres unmarked) [Compound 8] | 0.71 ± 0.03 | 17.2 ± 0.96 | 2.53 ± 0.14 | 9.37 ± 0.42 | > 50 | > 50 | – | – | < 50 | – | – | – | –
O=C1c2cccc(OCc3ccccc3)c2C(=O)c2c(OCc3ccccc3)cccc21 [Compound 16] | > 50 | > 50 | > 50 | > 50 | > 50 | > 50 | – | – | – | – | – | – | –
COc1cc(OC)c2c(c1)C(=O)c1cc3c(c(O)c1C2=O)C1CCOC1O3 (centres unmarked) [Compound 17] | > 50 | > 50 | > 50 | > 50 | > 50 | > 50 | – | – | – | – | – | – | –
Cc1cc(OCc2ccccc2)c2c(c1)C(=O)c1cccc(O)c1C2=O [Compound 15] | > 50 | > 50 | > 50 | > 50 | > 50 | > 50 | – | – | – | – | – | – | –
CC1OC(O[C@@H]2C(=O)c3c(O)cccc3OC2c2ccc(O)cc2)C(O)C(O)C1O (some centres unmarked) [Compound 79] | > 50 | > 50 | > 50 | > 50 | > 50 | > 50 | – | – | – | – | – | – | > 50
